Measurements published in patent publication US9738634B2, “Heterocyclic amide compound and herbicide” (SYNGENTA PARTICIPATIONS AG, priority 2013, dated 2017).

How the values were obtained:
Assay type in all cases: in vivo
barnyard grass [1] = assay: Test Example 2: weedkilling efficacy, growth period weed treatment in the submerged state; A: barnyard grass; settings: treatment dosage 320 g/ha
Method in brief: (§1)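 Barnyard grass, bulrush and oval-leafed pondweed sown in alluvial soil under 4 cm flooding, greenhouse 25 to 30° C. At 1-2 leaf stage, water-diluted emulsion applied to the water surface at stated g/ha dosages; effects scored 3 weeks later.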

bulrush [2] = assay: Test Example 2: weedkilling efficacy, growth period weed treatment in the submerged state; B: bulrush; settings: treatment dosage 320 g/ha
Method in brief: as §1

directly sown rice = assay: Test Example 3: soil treatment, effect on crop; b: directly sown rice; settings: soil treatment, treatment dosage 320 g/ha
Method in brief: (§2)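 Crop and weed responses were judged three weeks after a uniform surface spray of the water-diluted emulsion at the given g/ha rate. Seeds sat beneath about 1.5 cm of sterilized diluvial soil, and boxes stood in a greenhouse at 25 to 30° C.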

beet = assay: Test Example 3: soil treatment, effect on crop; f: beet; settings: soil treatment, treatment dosage 320 g/ha
Method in brief: as §2

wild oat = assay: Test Example 3: weedkilling efficacy through soil treatment; G: wild oat; settings: soil treatment, treatment dosage 320 g/ha
Method in brief: as §2

rapeseed = assay: Test Example 3: soil treatment, effect on crop; g: rapeseed; settings: soil treatment, treatment dosage 320 g/ha
Method in brief: as §2

barnyard grass [3] = assay: Test Example 3: weedkilling efficacy through soil treatment; F: barnyard grass; settings: soil treatment, treatment dosage 320 g/ha
Source text: Weedkilling Efficacy Test Through Soil Treatment
Sterilized diluvial soil was introduced into 21 cm long, 13 cm wide, 7 cm deep plastic boxes, and seeds of crabgrass, green foxtail, barnyard grass, wild oat, black-grass, Italian ryegrass, common wind-grass, Indian mallow, redroot pigweed, fig-leafed goosefoot, chickweed, catchweed, birds-eye speedwell, corn, soybean, rice, wheat, beet and rapeseed were each spot-sown, and covered with about 1.5 cm of soil. Next, emulsions of compounds of the present invention prepared according to compounding example 2 were diluted with water to give the specified dosages, and applied uniformly onto the soil surface with a small sprayer. The plants were grown by placing the plastic boxes in a greenhouse at 25 to 30° C., and 3 weeks after the pesticide treatment the effect on each type of plant was investigated on the basis of the assessment criteria of test example 1.
A: barnyard grass, B: bulrush, C: oval-leafed pondweed, D: crabgrass, E: green foxtail, F: barnyard grass, G: wild oat, H: black-grass, I: Italian ryegrass, J: common wind-grass, K: Indian mallow, L: redroot pigweed, M: fig-leafed goosefoot, N: chickweed, O: catchweed, p: birds-eye speedwell, a: transplanted rice, b: directly sown rice, c: corn, d: soybean, e: wheat, f: beet, g: rapeseed
Further, pesticide dosage (g/ha) indicates the concentration regulated such that treatment was with only the stated number of grams (g), when calculated per hectare (ha).

fig-leafed goosefoot = assay: Test Example 3: weedkilling efficacy through soil treatment; M: fig-leafed goosefoot; settings: soil treatment, treatment dosage 320 g/ha
Method in brief: as §2

wheat = assay: Test Example 3: soil treatment, effect on crop; e: wheat; settings: soil treatment, treatment dosage 320 g/ha
Method in brief: as §2

birds-eye speedwell = assay: Test Example 3: weedkilling efficacy through soil treatment; p: birds-eye speedwell; settings: soil treatment, treatment dosage 320 g/ha
Method in brief: as §2

Italian ryegrass = assay: Test Example 3: weedkilling efficacy through soil treatment; I: Italian ryegrass; settings: soil treatment, treatment dosage 320 g/ha
Method in brief: as §2

crabgrass = assay: Test Example 3: weedkilling efficacy through soil treatment; D: crabgrass; settings: soil treatment, treatment dosage 320 g/ha
Method in brief: as §2

chickweed = assay: Test Example 3: weedkilling efficacy through soil treatment; N: chickweed; settings: soil treatment, treatment dosage 320 g/ha
Method in brief: as §2

barnyard grass [4] = assay: Test Example 1: weedkilling efficacy, preemergent weed treatment in the submerged state; A: barnyard grass; settings: treatment dosage 320 g/ha
Method in brief: (§3)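 Visual scores against set criteria were taken 3 weeks after treatment. Compounds, as diluted emulsions at specified g/ha, went onto the water surface of 4 cm-flooded alluvial soil pots on the day weeds were sown and 2.5-leaf rice was transplanted; greenhouse held 25–30 °C.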

common wind-grass = assay: Test Example 3: weedkilling efficacy through soil treatment; J: common wind-grass; settings: soil treatment, treatment dosage 320 g/ha
Method in brief: as §2

soybean = assay: Test Example 3: soil treatment, effect on crop; d: soybean; settings: soil treatment, treatment dosage 320 g/ha
Method in brief: as §2

oval-leafed pondweed [5] = assay: Test Example 2: weedkilling efficacy, growth period weed treatment in the submerged state; C: oval-leafed pondweed; settings: treatment dosage 320 g/ha
Method in brief: as §1

Indian mallow = assay: Test Example 3: weedkilling efficacy through soil treatment; K: Indian mallow; settings: soil treatment, treatment dosage 320 g/ha
Method in brief: as §2

transplanted rice = assay: Test Example 1: preemergent weed treatment in the submerged state, effect on crop; a: transplanted rice; settings: treatment dosage 320 g/ha
Method in brief: as §3

black-grass = assay: Test Example 3: weedkilling efficacy through soil treatment; H: black-grass; settings: soil treatment, treatment dosage 320 g/ha
Method in brief: as §2

oval-leafed pondweed [6] = assay: Test Example 1: weedkilling efficacy, preemergent weed treatment in the submerged state; C: oval-leafed pondweed; settings: treatment dosage 320 g/ha
Method in brief: as §3

corn = assay: Test Example 3: soil treatment, effect on crop; c: corn; settings: soil treatment, treatment dosage 320 g/ha
Method in brief: as §2

bulrush [7] = assay: Test Example 1: weedkilling efficacy, preemergent weed treatment in the submerged state; B: bulrush; settings: treatment dosage 320 g/ha
Method in brief: as §3

redroot pigweed = assay: Test Example 3: weedkilling efficacy through soil treatment; L: redroot pigweed; settings: soil treatment, treatment dosage 320 g/ha
Method in brief: as §2

green foxtail = assay: Test Example 3: weedkilling efficacy through soil treatment; E: green foxtail; settings: soil treatment, treatment dosage 320 g/ha
Method in brief: as §2

Row | SMILES | A (barnyard grass) weedkilling efficacy grade (barnyard grass [1]) | B (bulrush) weedkilling efficacy grade (bulrush [2]) | b: directly sown rice, effect on crop grade (directly sown rice) | f: beet, effect on crop grade (beet) | G: wild oat, weedkilling efficacy grade (wild oat) | g: rapeseed, effect on crop grade (rapeseed) | F: barnyard grass, weedkilling efficacy grade (barnyard grass [3]) | M: fig-leafed goosefoot, weedkilling efficacy grade (fig-leafed goosefoot) | e: wheat, effect on crop grade (wheat) | P: birds-eye speedwell, weedkilling efficacy grade (birds-eye speedwell) | I: Italian ryegrass, weedkilling efficacy grade (Italian ryegrass) | D: crabgrass, weedkilling efficacy grade (crabgrass) | N: chickweed, weedkilling efficacy grade (chickweed) | A: barnyard grass, weed kill grade (barnyard grass [4]) | J: common wind-grass, weedkilling efficacy grade (common wind-grass) | d: soybean, effect on crop grade (soybean) | C (oval-leafed pondweed) weedkilling efficacy grade (oval-leafed pondweed [5]) | K: Indian mallow, weedkilling efficacy grade (Indian mallow) | a: transplanted rice, effect on crop grade (transplanted rice) | H: black-grass, weedkilling efficacy grade (black-grass) | other results
1 | CC(C)(C(=O)Nc1cc(I)ccn1)N1COCN(c2ccccc2)C1=O [A-2-10] | 5 (weed kill ratio 90% or more, (practically complete withering)) | 5 (weed kill ratio 90% or more, (practically complete withering)) | 4 (weed kill ratio 70% or more, less than 90%) | 3 (weed kill ratio 40% or more, less than 70%) | 2 (weed kill ratio 20% or more, less than 40%) | 3 (weed kill ratio 40% or more, less than 70%) | 5 (weed kill ratio 90% or more, (practically complete withering)) | 4 (weed kill ratio 70% or more, less than 90%) | 0 (weed kill ratio 5% or less (practically no effect)) | 4 (weed kill ratio 70% or more, less than 90%) | 5 (weed kill ratio 90% or more, (practically complete withering)) | 5 (weed kill ratio 90% or more, (practically complete withering)) | 3 (weed kill ratio 40% or more, less than 70%) | 5 (weed kill ratio 90% or more, (practically complete withering)) | 5 (weed kill ratio 90% or more, (practically complete withering)) | 0 (weed kill ratio 5% or less (practically no effect)) | 5 (weed kill ratio 90% or more, (practically complete withering)) | 0 (weed kill ratio 5% or less (practically no effect)) | 1 (weed kill ratio 5% or more, less than 20%) | 5 (weed kill ratio 90% or more, (practically complete withering)) | C: oval-leafed pondweed, weed kill grade (oval-leafed pondweed [6]): 5 (weed kill ratio 90% or more, (practically complete withering)); c: corn, effect on crop grade (corn): 0 (weed kill ratio 5% or less (practically no effect)); B: bulrush, weed kill grade (bulrush [7]): 5 (weed kill ratio 90% or more, (practically complete withering)); L: redroot pigweed, weedkilling efficacy grade (redroot pigweed): 1 (weed kill ratio 5% or more, less than 20%); E: green foxtail, weedkilling efficacy grade (green foxtail): 5 (weed kill ratio 90% or more, (practically complete withering))
2 | CC(C)(C(=O)Nc1cc(C(F)(F)F)cc(F)n1)N1COCN(c2ccccc2)C1=O [A-2-22] | 5 (weed kill ratio 90% or more, (practically complete withering)) | 5 (weed kill ratio 90% or more, (practically complete withering)) | 5 (weed kill ratio 90% or more, (practically complete withering)) | 4 (weed kill ratio 70% or more, less than 90%) | 5 (weed kill ratio 90% or more, (practically complete withering)) | 4 (weed kill ratio 70% or more, less than 90%) | 5 (weed kill ratio 90% or more, (practically complete withering)) | 4 (weed kill ratio 70% or more, less than 90%) | 0 (weed kill ratio 5% or less (practically no effect)) | 5 (weed kill ratio 90% or more, (practically complete withering)) | 5 (weed kill ratio 90% or more, (practically complete withering)) | 5 (weed kill ratio 90% or more, (practically complete withering)) | 4 (weed kill ratio 70% or more, less than 90%) | 5 (weed kill ratio 90% or more, (practically complete withering)) | 5 (weed kill ratio 90% or more, (practically complete withering)) | 4 (weed kill ratio 70% or more, less than 90%) | 5 (weed kill ratio 90% or more, (practically complete withering)) | 4 (weed kill ratio 70% or more, less than 90%) | 5 (weed kill ratio 90% or more, (practically complete withering)) | 5 (weed kill ratio 90% or more, (practically complete withering)) | C: oval-leafed pondweed, weed kill grade (oval-leafed pondweed [6]): 5 (weed kill ratio 90% or more, (practically complete withering)); c: corn, effect on crop grade (corn): 0 (weed kill ratio 5% or less (practically no effect)); B: bulrush, weed kill grade (bulrush [7]): 5 (weed kill ratio 90% or more, (practically complete withering)); L: redroot pigweed, weedkilling efficacy grade (redroot pigweed): 4 (weed kill ratio 70% or more, less than 90%); E: green foxtail, weedkilling efficacy grade (green foxtail): 5 (weed kill ratio 90% or more, (practically complete withering))
3 | Cc1cc(Cl)cc(NC(=O)C(C)(C)N2COCN(c3ccccc3)C2=O)n1 [A-2-25] | 5 (weed kill ratio 90% or more, (practically complete withering)) | 5 (weed kill ratio 90% or more, (practically complete withering)) | 5 (weed kill ratio 90% or more, (practically complete withering)) | 4 (weed kill ratio 70% or more, less than 90%) | 4 (weed kill ratio 70% or more, less than 90%) | 3 (weed kill ratio 40% or more, less than 70%) | 5 (weed kill ratio 90% or more, (practically complete withering)) | 4 (weed kill ratio 70% or more, less than 90%) | 0 (weed kill ratio 5% or less (practically no effect)) | 5 (weed kill ratio 90% or more, (practically complete withering)) | 5 (weed kill ratio 90% or more, (practically complete withering)) | 5 (weed kill ratio 90% or more, (practically complete withering)) | 4 (weed kill ratio 70% or more, less than 90%) | 5 (weed kill ratio 90% or more, (practically complete withering)) | 5 (weed kill ratio 90% or more, (practically complete withering)) | 0 (weed kill ratio 5% or less (practically no effect)) | 5 (weed kill ratio 90% or more, (practically complete withering)) | 5 (weed kill ratio 90% or more, (practically complete withering)) | 3 (weed kill ratio 40% or more, less than 70%) | 5 (weed kill ratio 90% or more, (practically complete withering)) | C: oval-leafed pondweed, weed kill grade (oval-leafed pondweed [6]): 5 (weed kill ratio 90% or more, (practically complete withering)); c: corn, effect on crop grade (corn): 0 (weed kill ratio 5% or less (practically no effect)); B: bulrush, weed kill grade (bulrush [7]): 5 (weed kill ratio 90% or more, (practically complete withering)); L: redroot pigweed, weedkilling efficacy grade (redroot pigweed): 4 (weed kill ratio 70% or more, less than 90%); E: green foxtail, weedkilling efficacy grade (green foxtail): 5 (weed kill ratio 90% or more, (practically complete withering))
